Measurements reported in patent publication US20250085273A1, “NOVEL RAPID DRUG DISCOVERY FOR SEPSIS AND AGENTS FOR USE AS SEPSIS THERAPY” (priority 2023, published 2025).
Read-outs that look alike come from different tables or passages of the source.

Key:
[1] = molecular target: hERG potassium ion channel current (IhERG) (Homo sapiens, UniProt Q12809); conditions: cited from earlier work
[2] = test system: 5-dpf zebrafish challenged with K. Pneumoniae LPS (45 μg/mL); test: Challenge with K. Pneumoniae LPS (45 μg/mL), 5-dpf zebrafish; type: in vivo, Danio rerio
Protocol: These tests followed the same methods described in the 5-dpf zebrafish confirmatory testing, but K. Pneumoniae LPS (45 μg/mL final in well concentration) was used instead of P. aeruginosa LPS.

[3] = test system: zebrafish (4 dpf pre-treated, LPS exposure at 5-dpf) challenged with P. aeruginosa LPS 60 μg/mL; type: in vivo, Danio rerio; conditions: for Pre-Treatment Rescue (n = 16): 24-hour drug pre-treatment; for Pre-Treatment Rescue (n = 16) / No Pre-Treatment Rescue (n = 16): P. aeruginosa LPS 60 μg/mL; for No Pre-Treatment Rescue (n = 16): no 24-hour drug pre-treatment; for 24 hour Tail Edema, No-Drug Pretreatment / 24 Hour Mortality and Tail Edema, Drug Pretreatment / 24 Hour Mortality, Drug Pretreatment / 24 hour Tail Edema, Drug Pretreatment / 24 Hour Mortality and Tail Edema, No-Drug Pretreatment / 24 Hour Mortality, No Drug Pretreatment: number of n = 16 fish; for 24 hour Tail Edema, No-Drug Pretreatment: 10 μM drug with LPS 60 μg/mL; for 24 hour Tail Edema, No-Drug Pretreatment / 24 Hour Mortality and Tail Edema, No-Drug Pretreatment / 24 Hour Mortality, No Drug Pretreatment: no 24-hour pre-treatment; for 24 Hour Mortality and Tail Edema, Drug Pretreatment / 24 Hour Mortality, Drug Pretreatment: 24-hour 10 μM drug pre-treatment; for 24 hour Tail Edema, Drug Pretreatment: 24-hour 10 μM drug pre-treatment before LPS 60 μg/mL
Procedure, shortened: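 PTU-treated 4 dpf zebrafish embryos received a 24-hour drug pre-treatment at 28.5 °C, alongside an untreated parallel group, before challenge at 5 dpf with P. aeruginosa LPS at 60 μg/mL. Tail edema and mortality were scored at 6 and 24 h post exposure, followed by a neurobehavioral test.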

[4] = test system: 5-dpf zebrafish larvae challenged with P. aeruginosa LPS 60 μg/mL; type: in vivo, Danio rerio; conditions: compound 10 μM; for 5 dpf Embryos Percent Rescue (Mort + Tail Edema): 5-dpf larvae
[5] = test system: 3-dpf Zebrafish Embryos Challenged with LPS (P. aeruginosa 60 μg/mL); type: in vivo, Danio rerio; conditions: P. aeruginosa LPS 60 μg/mL, compound 10 μM; for Percent Rescue (Mort + Tail Edema): 3-dpf embryos, n=16; for Percent Rescue (Mort + Tail Edema) / rescue of tail edema and mortality (sepsis rescue rate) at 3-dpf: 24 hours; for 3 dpf Embryos Percent Rescue (Mort + Tail Edema): initial 3-dpf screen shown for reference
Procedure, shortened: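 3-dpf PTU-treated AB zebrafish embryos exposed to 60 μg/mL P. aeruginosa LPS plus 10 μM compound (final) at 28.5 °C, n=16 per compound. Tail edema and mortality scored at 6 and 24 h post exposure; rescue judged against LPS-only controls at 24 h.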

human recombinant 5-HT2A = human recombinant 5-HT2A (Homo sapiens, UniProt P28223); conditions: cited from earlier work
human recombinant 5-HT2C = molecular target: T1, human recombinant 5-HT2C (Homo sapiens, UniProt P28335); conditions: cited from earlier work
T1 sequence (P28335 33-458): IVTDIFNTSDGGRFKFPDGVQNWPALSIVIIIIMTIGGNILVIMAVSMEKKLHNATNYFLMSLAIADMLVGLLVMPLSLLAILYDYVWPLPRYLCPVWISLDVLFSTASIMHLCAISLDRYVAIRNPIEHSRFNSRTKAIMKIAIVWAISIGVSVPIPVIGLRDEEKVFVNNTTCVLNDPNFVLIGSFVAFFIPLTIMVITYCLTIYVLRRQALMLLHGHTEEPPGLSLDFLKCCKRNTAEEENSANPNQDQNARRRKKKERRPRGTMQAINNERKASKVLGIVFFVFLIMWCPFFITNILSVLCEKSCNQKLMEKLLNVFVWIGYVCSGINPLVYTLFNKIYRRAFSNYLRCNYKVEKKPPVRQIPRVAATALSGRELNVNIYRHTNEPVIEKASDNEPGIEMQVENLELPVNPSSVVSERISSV

5-HT2B = 5-HT2B (Homo sapiens, UniProt P41595); conditions: cited from earlier work
[6] = test system: larval zebrafish locomotor behavior; type: in vivo
Description: This assay is a modified version of the larval zebrafish light dark transition assay with an added UV light (wavelength=295 nm) phase to capture any compound specific neurological effects to UV light. (Basnet et al., 2019, Kokel et al., 2013, Peng et al., 2016). The light period assesses deviations from normal locomotor behavior while the rapid transition to dark provides a measure of stress response by identifying any deviations from the normal heightened locomotor activity caused by the transition to dark. The neurobehavioral assay used a custom trial control script created by Noldus Ethovision XT 15, and it was executed in a Noldus DanioVision system. Zebrafish larvae in microplates were allowed to habituate in the DanioVision system for 5 minutes under white light conditions prior to the start of the test. The neurobehavioral assay consisted of three phases: a 3-minute light phase (white light), a 3-minute dark phase (no light) and a 5 second UV phase (UV light only). The Danio Vision system captured larval zebrafish movement throughout this assay at 30 frames per second.
(§1) LC50s for the LPS tests were determined using the Trimmed Spearmen-Karber method (Hamilton et al., 1977). The tail edema and mortality data from the initial and confirmatory drug testing was analyzed using GraphPad Prism 9 using Fisher's Exact Test. Each drug treatment group was compared pairwise with the on-board positive control group on each test plate. Statistical significance was determined with values of p≤0.05. Neurological behavioral testing data was analyzed by Ethovision software that produced an activity analysis profile per frame for each well of the 96 well plates. Any dead embryos were removed from the data set, and the remaining data set was imported into Excel. The offset function in Excel was used to average the percentage of pixel change per 0.1 s for each plate. […] The behavioral data was then statistically analyzed by drug per phase using a 2 tailed t-test to determine statistical significance p≤0.01.

D2 receptor = D2 receptor (Homo sapiens, UniProt P14416); conditions: read-out: IC50 for D2 receptor; cited from earlier work
[7] = test system: larval zebrafish exposed to Pseudomonas aeruginosa 60 μg/mL lipopolysaccharide (LPS); test: Zebrafish endotoxicity/sepsis model drug screening, statements without larval stage; type: in vivo, Danio rerio
Description: To identify potential sepsis drug candidates, an optimized larval zebrafish model of endotoxicity/sepsis was used to screen commercial libraries of U.S. Food and Drug Administration (FDA)-approved drugs and other active pharmaceutical ingredients (API) known to affect pathways implicated in the initiation and progression of sepsis in humans (i.e., inflammation, mitochondrial dysfunction, coagulation, and apoptosis). In this model, endotoxicity was induced in 3- and 5-day post fertilization larval zebrafish (characterized by mortality and tail fin edema (vascular leakage)) by immersion exposure to Pseudomonas aeruginosa 60 μg/mL lipopolysaccharide (LPS) for 24 hours, then screened for the rescue potential of 644 selected drugs simultaneously with LPS at 10 μM. After LPS exposure, a neurobehavioral assay (light-dark test) was performed to further evaluate rescue from endotoxicity and to determine possible off-target drug side effects.

[8] = test system: zebrafish exposed to P. aeruginosa LPS; test: Model compound testing in the optimized zebrafish sepsis model (varying LPS dose ranges); type: in vivo, Danio rerio
Protocol: Three sources of LPS were evaluated: E. coli 0111:B4, P. aeruginosa Sigma L9143, and K. pneumoniae. E. coli 0111:B4 LPS was selected as the reference LPS used by Philip et al. (2017). P. aeruginosa LPS is commonly associated with infections in hospitals, accounting for an estimated 32,600 cases and resulting in an estimated 2,700 deaths in 2017 (CDC Report 2019). P. aeruginosa infections are also a common cause of sepsis in both patients with severe burns and immunocompromised patients. K. pneumoniae LPS has military relevance related to battlefield injury infections (Kiley et al., 2021). Initial range finding LC50 tests with larval zebrafish were conducted for each LPS strain at both 3-dpf and 5-dpf. […] (E. coli 0111:B4 was also tested at higher concentrations, 400, 800, and 1000 μg/mL due a lack of toxicity within the initial dose range.) Well plates were then covered with parafilm and placed into an incubator at 28.5° C. for 24 hours. After 6 and 24 hours, the plates were removed and scored for mortality, tail edema, and ROS production. The tail edema endpoint evaluates vascular leakage from caudal fin in response to LPS exposure (FIG. 2). ROS production was determined as described by Philip et al. (2017) by adding 2,7-dichloroflurescein diacetate (100 μM) to the wells containing the zebrafish larvae and incubating them in a 100% dark photoperiod incubator at 28.5° C. for one hour. Florescent images of the incubated zebrafish were then captured with a Keyence BZ-X710 fluorescent microscope using 10× objective with a GFP filter and fixed 1/15 second exposure for all imaging. […] Results from the LPS toxicity testing and endpoint screening were used to develop the optimized testing procedure through evaluation in selected model compounds, as described in the next section and in the results.
The optimized zebrafish sepsis model was evaluated against compounds previously shown to have efficacy in previous zebrafish sepsis models: fasudil, hydrocortisone, dexamethasone, and fisetin. Fasudil, an anti-vascular leakage compound (inhibitor of the RhoA/Rho-kinase pathway) was shown by Philip et al. (2017) to rescue zebrafish from LPS-induced mortality, ROS production, and tail fin edema. Fasudil also rescued LPS-induced vascular leakage in murine models of experimental sepsis (Li et al., 2010) and reduced acute lung injury in septic rats through inhibition of the Rho/ROCK signaling pathway (Wang et al., 2018). […] Endpoints evaluated with model compounds included mortality, tail edema, and ROS at 6- and 24-hours post exposure to varying dose ranges of LPS.
as §1, with “Excel.” for “Excel. The offset function in Excel was used to average the percentage of pixel change per 0.1 s for each plate.”

Chain of D2 receptor (P14416 whole entry): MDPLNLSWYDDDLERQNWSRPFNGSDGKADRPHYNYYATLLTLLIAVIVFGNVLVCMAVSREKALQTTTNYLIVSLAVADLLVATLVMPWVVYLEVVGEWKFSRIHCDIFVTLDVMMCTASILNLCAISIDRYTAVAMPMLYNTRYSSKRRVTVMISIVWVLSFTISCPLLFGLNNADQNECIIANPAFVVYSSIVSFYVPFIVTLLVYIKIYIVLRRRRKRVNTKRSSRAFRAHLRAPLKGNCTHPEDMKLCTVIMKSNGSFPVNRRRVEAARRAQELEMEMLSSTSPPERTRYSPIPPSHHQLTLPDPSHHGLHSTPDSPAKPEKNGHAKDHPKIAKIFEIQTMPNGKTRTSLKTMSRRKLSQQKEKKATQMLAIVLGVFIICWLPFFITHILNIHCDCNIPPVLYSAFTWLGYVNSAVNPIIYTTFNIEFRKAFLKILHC
Chain of 5-HT2B (P41595 whole entry): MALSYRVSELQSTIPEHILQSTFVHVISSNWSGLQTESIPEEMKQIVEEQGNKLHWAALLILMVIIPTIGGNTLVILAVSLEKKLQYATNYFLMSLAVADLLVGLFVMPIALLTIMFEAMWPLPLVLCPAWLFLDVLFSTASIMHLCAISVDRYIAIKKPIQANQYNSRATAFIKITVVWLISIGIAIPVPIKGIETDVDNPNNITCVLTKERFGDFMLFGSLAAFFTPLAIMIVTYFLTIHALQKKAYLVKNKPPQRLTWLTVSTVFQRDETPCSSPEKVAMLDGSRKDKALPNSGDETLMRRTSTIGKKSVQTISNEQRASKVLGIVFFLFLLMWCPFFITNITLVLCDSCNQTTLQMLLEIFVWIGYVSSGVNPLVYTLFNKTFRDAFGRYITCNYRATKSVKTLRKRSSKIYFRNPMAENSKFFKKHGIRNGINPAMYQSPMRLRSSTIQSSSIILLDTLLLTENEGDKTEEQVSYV
Chain of hERG potassium ion channel current (IhERG) (Q12809 whole entry): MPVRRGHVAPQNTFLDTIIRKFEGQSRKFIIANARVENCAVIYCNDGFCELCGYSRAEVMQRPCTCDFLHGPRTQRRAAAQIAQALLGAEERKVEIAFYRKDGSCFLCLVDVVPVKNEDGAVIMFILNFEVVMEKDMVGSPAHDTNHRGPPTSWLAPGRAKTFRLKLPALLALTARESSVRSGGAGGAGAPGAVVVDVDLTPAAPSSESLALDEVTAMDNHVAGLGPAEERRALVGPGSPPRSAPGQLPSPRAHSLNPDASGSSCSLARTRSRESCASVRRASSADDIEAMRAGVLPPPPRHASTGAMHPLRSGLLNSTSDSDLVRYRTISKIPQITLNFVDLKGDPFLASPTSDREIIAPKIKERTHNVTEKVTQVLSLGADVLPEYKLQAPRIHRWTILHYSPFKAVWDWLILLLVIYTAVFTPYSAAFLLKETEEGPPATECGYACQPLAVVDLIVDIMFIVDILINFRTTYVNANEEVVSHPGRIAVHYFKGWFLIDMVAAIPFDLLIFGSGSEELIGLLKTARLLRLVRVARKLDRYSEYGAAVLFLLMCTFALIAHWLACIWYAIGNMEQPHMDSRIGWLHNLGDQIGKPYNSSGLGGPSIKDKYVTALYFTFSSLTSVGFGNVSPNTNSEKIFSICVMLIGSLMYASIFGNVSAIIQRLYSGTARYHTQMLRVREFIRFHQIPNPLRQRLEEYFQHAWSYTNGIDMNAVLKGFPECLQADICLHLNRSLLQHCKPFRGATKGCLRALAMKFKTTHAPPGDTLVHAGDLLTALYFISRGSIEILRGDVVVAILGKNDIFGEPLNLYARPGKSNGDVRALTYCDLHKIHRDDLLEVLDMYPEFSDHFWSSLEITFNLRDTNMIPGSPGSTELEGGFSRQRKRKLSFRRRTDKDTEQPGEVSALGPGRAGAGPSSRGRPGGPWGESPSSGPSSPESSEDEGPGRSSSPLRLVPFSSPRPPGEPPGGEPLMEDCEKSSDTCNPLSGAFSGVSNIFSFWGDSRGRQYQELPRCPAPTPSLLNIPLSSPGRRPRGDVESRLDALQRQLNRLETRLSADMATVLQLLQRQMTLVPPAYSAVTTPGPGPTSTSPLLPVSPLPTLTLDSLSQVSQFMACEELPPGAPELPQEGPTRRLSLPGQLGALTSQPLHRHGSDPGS
Chain of human recombinant 5-HT2A (P28223 whole entry): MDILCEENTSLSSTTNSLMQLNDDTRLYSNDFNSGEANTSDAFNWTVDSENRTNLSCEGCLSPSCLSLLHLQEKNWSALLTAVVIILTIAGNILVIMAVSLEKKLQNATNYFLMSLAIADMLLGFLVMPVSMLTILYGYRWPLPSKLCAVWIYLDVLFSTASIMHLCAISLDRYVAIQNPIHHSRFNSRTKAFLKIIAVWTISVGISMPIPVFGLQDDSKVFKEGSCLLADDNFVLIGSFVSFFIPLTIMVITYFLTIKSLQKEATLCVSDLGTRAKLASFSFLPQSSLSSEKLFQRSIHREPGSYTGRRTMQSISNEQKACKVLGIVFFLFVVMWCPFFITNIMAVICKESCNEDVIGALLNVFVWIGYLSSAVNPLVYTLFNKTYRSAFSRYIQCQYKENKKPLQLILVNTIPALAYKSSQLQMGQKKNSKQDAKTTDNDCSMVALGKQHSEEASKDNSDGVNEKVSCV

Row | Compound | rescue of tail edema and mortality [2] [%] | Pre-Treatment Rescue (n = 16) [3] [%] | No Pre-Treatment Rescue (n = 16) [3] [%] | 24 hour Tail Edema, No-Drug Pretreatment [3] [fish] | 24 Hour Mortality and Tail Edema, Drug Pretreatment [3] [fish] | 24 Hour Mortality, Drug Pretreatment [3] [fish] | 24 hour Tail Edema, Drug Pretreatment [3] [fish] | 24 Hour Mortality and Tail Edema, No-Drug Pretreatment [3] [fish] | 24 Hour Mortality, No Drug Pretreatment [3] [fish] | 5 dpf Embryos Percent Rescue (Mort + Tail Edema) [4] [%] | rescue of tail edema and mortality (sepsis rescue rate) at 5-dpf [4] [%] | Percent Rescue (Mort + Tail Edema) [5] [%] | rescue of tail edema and mortality (sepsis rescue rate) at 3-dpf [5] [%] | 3 dpf Embryos Percent Rescue (Mort + Tail Edema) [5] [%] | other results
1 | O=C(c1ccc(F)cc1)C1CCN(CCn2c(=O)[nH]c3ccccc3c2=O)CC1 [Compound 88, Ketanserin] | 88 | 100 | 100 | 0 | 0 | 0 | 0 | 0 | 0 | 81 | 81 | 100 | 100 | 100 | IC50 [1]: 110 nM; rescue of tail edema and mortality (sepsis rescue rate) at 5-dpf ([4]; listed as ketanserin): 100%
2 | CCCCCNC(=N)N/N=C/c1c[nH]c2ccc(OC)cc12 [Compound 400, Tegaserod (maleate)] | 100 | 100 | 88 | 1 | 0 | 0 | 0 | 2 | 1 | 100 | 100 | 100 | 100 | 100 | pKi 5-HT2A (human recombinant 5-HT2A): 7.5; pKi 5-HT2C (human recombinant 5-HT2C): 7.0; pKi 5-HT2B (5-HT2B): 8.4; light/dark neurobehavioral testing, difference from negative controls ([6]; after LPS exposure, with and without drug pre-treatment): little to no difference from negative controls; Post Test Behavioral Assay ([6]; after pre-treatment test LPS exposure): Normal
3 | CN1CCN(CCCN2c3ccccc3Sc3ccc(C(F)(F)F)cc32)CC1 [Trifluoperazine] | – | – | – | – | – | – | – | – | – | – | – | – | – | – | IC50 (D2 receptor): 1.2 nM
4 | C[C@]12CCC(=O)C=C1CC[C@@H]1[C@@H]2[C@@H](O)C[C@@]2(C)[C@H]1CC[C@]2(O)C(=O)CO [hydrocortisone] | – | – | – | – | – | – | – | – | – | – | – | – | – | – | rescue at 6-hour exposure time point ([7]; 6-hour exposure time point): showed rescue early; rescue by 24 hours post exposure ([7]; 24 hours post exposure): failed to show any level of rescue; efficacy (mortality) at 6 hours ([8]; 6 hours post LPS exposure): some efficacy noted; mortality at 24 hours post exposure ([8]; 24 hours post LPS exposure): increased mortality over no treatment
